Bounds are passed on as bounds.

One may read the IC50 as the concentration needed to halve the response being measured.

In one experiment the target is T1, KRAS^G12C::SOS1 (Homo sapiens, UniProt Q07889).
T1 sequence (Q07889 1-1333): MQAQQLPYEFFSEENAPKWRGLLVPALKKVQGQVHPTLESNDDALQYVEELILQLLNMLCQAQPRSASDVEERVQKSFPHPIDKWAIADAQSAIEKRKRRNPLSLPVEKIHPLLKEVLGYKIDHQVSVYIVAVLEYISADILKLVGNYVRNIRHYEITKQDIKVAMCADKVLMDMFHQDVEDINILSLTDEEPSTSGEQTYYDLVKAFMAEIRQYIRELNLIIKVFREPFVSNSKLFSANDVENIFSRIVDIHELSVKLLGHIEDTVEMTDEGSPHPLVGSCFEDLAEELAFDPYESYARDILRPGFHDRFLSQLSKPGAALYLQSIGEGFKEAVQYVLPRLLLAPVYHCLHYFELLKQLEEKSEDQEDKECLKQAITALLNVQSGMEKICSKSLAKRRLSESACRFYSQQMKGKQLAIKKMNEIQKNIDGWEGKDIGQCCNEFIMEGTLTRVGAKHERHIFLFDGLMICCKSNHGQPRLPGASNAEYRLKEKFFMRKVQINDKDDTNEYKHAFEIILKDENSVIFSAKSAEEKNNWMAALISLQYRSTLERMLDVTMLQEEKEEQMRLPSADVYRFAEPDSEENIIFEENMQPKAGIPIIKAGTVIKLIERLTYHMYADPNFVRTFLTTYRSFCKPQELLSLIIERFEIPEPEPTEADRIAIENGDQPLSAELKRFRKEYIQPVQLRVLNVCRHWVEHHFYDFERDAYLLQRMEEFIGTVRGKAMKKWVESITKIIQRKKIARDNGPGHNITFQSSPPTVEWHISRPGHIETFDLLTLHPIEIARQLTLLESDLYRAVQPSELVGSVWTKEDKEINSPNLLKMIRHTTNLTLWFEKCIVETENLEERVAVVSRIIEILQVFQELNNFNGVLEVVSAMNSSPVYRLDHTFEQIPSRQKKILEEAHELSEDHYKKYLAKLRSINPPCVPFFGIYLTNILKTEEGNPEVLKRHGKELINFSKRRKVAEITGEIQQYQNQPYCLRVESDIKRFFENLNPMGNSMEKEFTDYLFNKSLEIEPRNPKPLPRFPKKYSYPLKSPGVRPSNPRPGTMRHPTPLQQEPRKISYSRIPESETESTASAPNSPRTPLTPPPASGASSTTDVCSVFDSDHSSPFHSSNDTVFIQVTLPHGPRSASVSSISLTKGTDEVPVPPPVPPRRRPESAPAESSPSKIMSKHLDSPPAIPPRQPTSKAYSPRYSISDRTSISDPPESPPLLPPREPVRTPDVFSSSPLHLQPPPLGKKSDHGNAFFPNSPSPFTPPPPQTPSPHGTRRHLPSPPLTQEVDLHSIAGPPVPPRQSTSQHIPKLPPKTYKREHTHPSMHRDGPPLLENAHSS
The experiment in a line: KRAS G12C::SOS1 protein-protein interaction (PPI) inhibition assay (HTRF binding kit).
Details: not given
In general terms: TR-FRET usually uses a lanthanide donor and a delayed reading to cut background.
As to `C[C@@H](NC(=O)c1ccc(=O)n(-c2ccccc2F)n1)c1cccc(-n2ccc(=O)cc2)c1` [Example 304], the IC50 was more than 10 µM.

In turn, `C[C@@H](NC(=O)c1ccc(=O)n(-c2cccc(C(=O)N3CCCC3)c2)n1)c1cccc(C(F)(F)CO)c1F` [Example 194, N-[(1R)-1-[3-(1,1-difluoro-2-hydroxy-ethyl)-2-fluoro-phenyl]ethyl]-6-oxo-1-[3-(pyrrolidine-1-carbonyl)phenyl]pyridazine-3-carboxamide] gave a concentration for half-maximal inhibition (IC50) of less than 1 µM.

For the compound `C[C@@H](NC(=O)c1nn(-c2ccccc2F)c(=O)cc1N)c1cc(N)cc(C(F)(F)F)c1` [Example 381, 4-amino-N-[(1R)-1-[3-amino-5-(trifluoromethyl)phenyl]ethyl]-1-(2-fluorophenyl)-6-oxo-pyridazine-3-carboxamide], the half-maximal inhibitory concentration (IC50) is less than 1 µM.

`Cc1nnnn1-c1cccc(-n2nc(C(=O)N[C@H](C)c3cc(N)cc(C(F)(F)F)c3)ccc2=O)c1` [Example 373, N-[(1R)-1-[3-amino-5-(trifluoromethyl)phenyl]ethyl]-1-[3-(5-methyltetrazol-1-yl)phenyl]-6-oxo-pyridazine-3-carboxamide] yielded an IC50 of less than 1 µM.

`C[C@@H](NC(=O)c1ccc(=O)n(-c2ccccc2F)n1)c1cccc(F)c1Cl` [Example 261, N-[(1R)-1-(2-chloro-3-fluoro-phenyl)ethyl]-1-(2-fluorophenyl)-6-oxo-pyridazine-3-carboxamide] registered an IC50 of more than 10 µM.

The compound `COCc1cccc(-n2nc(C(=O)N[C@H](C)c3cccc(C(F)(F)CO)c3F)ccc2=O)c1` [Example 204, N-[(1R)-1-[3-(1,1-difluoro-2-hydroxy-ethyl)-2-fluoro-phenyl]ethyl]-1-[3-(methoxymethyl)phenyl]-6-oxo-pyridazine-3-carboxamide] gave a 50% inhibitory concentration (IC50) of less than 1 µM.

`C[C@@H](NC(=O)c1ccc(=O)n(-c2cccc(-c3cncn3C)c2)n1)c1cc(N)cc(C(F)(F)F)c1` [Example 320, N-[(1R)-1-[3-amino-5-(trifluoromethyl)phenyl]ethyl]-1-[3-(3-methylimidazol-4-yl)phenyl]-6-oxo-pyridazine-3-carboxamide] had an IC50 of less than 1 µM.

Compound `C[C@@H](NC(=O)c1nn(-c2ccccc2F)c(=O)cc1Nc1ccccc1)c1cc(N)cc(C(F)(F)F)c1` [Example 210, N-[(1R)-1-[3-amino-5-(trifluoromethyl)phenyl]ethyl]-4-anilino-1-(2-fluorophenyl)-6-oxo-pyridazine-3-carboxamide] showed an IC50 of less than 1 µM.

`C[C@@H](NC(=O)c1ccc(=O)n(-c2cccc(C(=O)N3CCN(C)CC3)c2)n1)c1cc(N)cc(C(F)(F)F)c1` [Example 255, N-[(1R)-1-[3-amino-5-(trifluoromethyl)phenyl]ethyl]-1-[3-(4-methylpiperazine-1-carbonyl)phenyl]-6-oxo-pyridazine-3-carboxamide] displayed an IC50 of less than 1 µM.

In turn, `C[C@@H](NC(=O)c1ccc(=O)n(-c2ccccc2F)n1)c1ccc(-c2ccccc2CO)s1` [Example 299, 1-(2-fluorophenyl)-N-[(1R)-1-[5-[2-(hydroxymethyl)phenyl]-2-thienyl]ethyl]-6-oxo-pyridazine-3-carboxamide] had an IC50 of 1 to 10 µM.

In turn, `C[C@@H](NC(=O)c1ccc(=O)n(-c2cccc(-c3cncs3)c2)n1)c1cccc(C(F)(F)CO)c1F` [Example 339, N-[(1R)-1-[3-(1,1-difluoro-2-hydroxy-ethyl)-2-fluorophenyl]ethyl]-6-oxo-1-(3-thiazol-5-ylphenyl)pyridazine-3-carboxamide] returned a half-inhibitory concentration (IC50) of less than 1 µM.

In turn, `Cc1nnnn1-c1cccc(-n2cc(C(=O)N[C@H](C)c3cc(N)cc(C(F)(F)F)c3)ccc2=O)c1` [Example 374, N-[(1R)-1-[3-amino-5-(trifluoromethyl)phenyl]ethyl]-1-[3-(5-methyltetrazol-1-yl)phenyl]-6-oxo-pyridine-3-carboxamide] showed an IC50 of less than 1 µM.

`Cc1nnc(-c2cccc(-n3nc(C(=O)N[C@H](C)c4cc(N)cc(C(F)(F)F)c4)ccc3=O)c2)o1` [Example 319, N-[(1R)-1-[3-amino-5-(trifluoromethyl)phenyl]ethyl]-1-[3-(5-methyl-1,3,4-oxadiazol-2-yl)phenyl]-6-oxo-pyridazine-3-carboxamide]: the IC50 was less than 1 µM.

With `C[C@@H](NC(=O)c1cc(N)c(=O)n(-c2ccccc2)n1)c1cc(N)cc(C(F)(F)F)c1` [Example 213, 5-amino-N-[(1R)-1-[3-amino-5-(trifluoromethyl)phenyl]ethyl]-6-oxo-1-phenyl-pyridazine-3-carboxamide], the IC50 was less than 1 µM.

In turn, `C[C@@H](NC(=O)c1ccc(=O)n(-c2cccc(C(=O)N3CCCC3)c2)n1)c1cc(N)cc(C(F)(F)F)c1` [Example 197, N-[(1R)-1-[3-amino-5-(trifluoromethyl)phenyl]ethyl]-6-oxo-1-[3-(pyrrolidine-1-carbonyl)phenyl]pyridazine-3-carboxamide] showed a half-maximal inhibitory concentration (IC50) of less than 1 µM.

In turn, `C[C@@H](NC(=O)c1ccc(=O)n(-c2ccccc2F)c1)c1cc(N)cc(C(F)F)c1` [Example 263, N-[(1R)-1-[3-amino-5-(difluoromethyl)phenyl]ethyl]-1-(2-fluorophenyl)-6-oxo-pyridine-3-carboxamide] showed an IC50 of less than 1 µM.

Consider `CNCc1cc(F)c(F)cc1-c1ccc([C@@H](C)NC(=O)c2ccc(=O)n(-c3cccnc3F)n2)s1` [Example 401, N-[(1R)-1-(5-{4,5-difluoro-2-[(methylamino)methyl]phenyl}thiophen-2-yl)ethyl]-1-(2-fluoropyridin-3-yl)-6-oxo-1,6-dihydropyridazine-3-carboxamide], for which the IC50 is less than 1 µM.

`C[C@@H](NC(=O)c1ccc(=O)n(-c2ccccc2F)n1)c1cccc(C(F)(F)CN(C)C)c1` [Example 258, N-[(1R)-1-[3-[2-(dimethylamino)-1,1-difluoro-ethyl]phenyl]ethyl]-1-(2-fluorophenyl)-6-oxo-pyridazine-3-carboxamide] yielded a half-inhibitory concentration (IC50) of less than 1 µM.

`C[C@@H](NC(=O)c1ccc(=O)n(-c2ccccc2F)c1)c1cc(N)cc(C(F)(F)F)c1` [Example 218, N-[(1R)-1-[3-amino-5-(trifluoromethyl)phenyl]ethyl]-1-(2-fluorophenyl)-6-oxo-pyridine-3-carboxamide] came in with an IC50 of less than 1 µM.

`CNCc1ccc(C)cc1-c1ccc([C@@H](C)NC(=O)c2ccc(=O)n(-c3cccnc3F)c2)s1` [Example 272, 1-(2-fluoro-3-pyridyl)-N-[(1R)-1-[5-[5-methyl-2-(methylaminomethyl)phenyl]-2-thienyl]ethyl]-6-oxo-pyridine-3-carboxamide] yielded an IC50 of less than 1 µM.

Take `CNCc1ccccc1-c1ccc([C@@H](C)NC(=O)c2nn(-c3cnn(C)c3)c(=O)c3cc[nH]c23)s1` [Example 275, N-[(1R)-1-[5-[2-(methylaminomethyl)phenyl]-2-thienyl]ethyl]-5-(1-methylpyrazol-4-yl)-4-oxo-1H-pyrrolo[2,3-d]pyridazine-7-carboxamide]: the IC50 is less than 1 µM.

With `C[C@@H](NC(=O)c1ccc(=O)n(-c2cc(F)ccc2F)n1)c1cccc(C(F)(F)CO)c1F` [Example 356, N-[(1R)-1-[3-(1,1-difluoro-2-hydroxy-ethyl)-2-fluoro-phenyl]ethyl]-1-(2,5-difluorophenyl)-6-oxo-pyridazine-3-carboxamide], the half-inhibitory concentration (IC50) is less than 1 µM.

`C[C@@H](NC(=O)c1cc(Br)c(=O)n(-c2ccccc2)n1)c1cc(N)cc(C(F)(F)F)c1` [Example 241, (R)-N-(1-(3-amino-5-(trifluoromethyl)phenyl)ethyl)-5-bromo-6-oxo-1-phenyl-1,6-dihydropyridazine-3-carboxamide] had a concentration for half-maximal inhibition (IC50) of less than 1 µM.

The experiment is the same for the next values; noted with them: read-out: KRAS ^G12C::SOS1 PPI assay (IC50 range, Grade); maximum concentration 3 µM, 8 concentrations, three replicates.
On to “N-[(1R)-1-[3-amino-5-(trifluoromethyl)phenyl]ethyl]-1-(3-isoxazol-4-ylphenyl)-6-oxo-pyridazine-3-carboxamide [Example 322]”, for which the IC50 is less than 1 µM.

On to “N-[(1R)-1-[3-amino-5-(trifluoromethyl)phenyl]ethyl]-1-(4-fluorophenyl)-6-oxo-pyridazine-3-carboxamide [Example 172]”, for which the IC50 is less than 1 µM.

The values above are taken from patent EP4667458A1 (Kanaph Therapeutics Inc., priority 2023, dated 2024).
